Source: patent US20050180947A1, “Novel application of vaccination against TNF-alpha” (priority 2002, published 2005)

Assays:
[1] = system: Male Sprauge-Dawley rats, partial sciatic nerve ligation (PSNI model); test: Thermal hyperalgesia (plantar test, hind paw withdrawal latency) in the partial sciatic nerve ligation (PSNI/PSNL) model; assay type: in vivo, rat
Source text: Male Sprauge-Dawley rats (200-600 g) were used in all the experiments. The rats were permitted to acclimate 1 week before use in the experiments. The rats were marked with a speed marker on their tails and normally kept in groups of 2-3 per cage pre- and postoperatively. They were housed in clear plastic cages with solid floors covered with sawdust in a normal day/night cycle. Water and food were supplied ad libitum.
The method of partial sciatic nerve injury is developed by Seltzer. Before surgery, the rats were shaved and washed with iodine solution (Iobac vet.) on the surgical area. The left sciatic nerve was exposed at high-thigh level by making a 2-3 cm incision in the skin. The skin was then freed from the connective tissue surrounding the incision in order to assure free movement of the leg after skin stapling. Using blunt dissection through the biceps femoris, the nerve was exposed and carefully freed from surrounding connective tissue at a site near the trochanter just below the point at which the posterior biceps semitendinosus nerve branches off the common sciatic nerve. Using a small pincette slid under the nerve, the nerve was gently lifted up and fixed. An 8/0 Ethilon suture was inserted into the nerve and tightly ligated so that the dorsal 1/3-1/2 of the nerve thickness was trapped in the ligature. The muscle was closed with 2-3 muscle sutures (4/0 vicryl), and the skin closed with 3-4 skin staples.
Plantar test (Ugo Basile) was used in this study to asses the nociceptive response.
The rats were placed in the clear plastic chamber (18 cm×29 cm×12.5 cm) allowed to acclimate to the new environment for about 5 min. Before testing. During this time period the rat was showing exploratory behaviour e.g. standing on its hind leg. When the rat had been acclimated, it stood quietly with occasional bouts of grooming. The radiant heat score beneath the class floor was pointed at the planter hind paw with help from the white sight marks engraved on the top of the I.R vessel.
The infrared (IR) source was then started and the withdrawal latency recorded.
When the rat felt pain and withdrew its paw, the sudden drop in radiation led to a automatic stop of the IR source and the time counter and the withdrawal latency could be determined to the nearest 0.1 sec.
The withdrawal latency was every time tested 5 times with intervals of 5 min. The average of the 5 measurements were then used as the withdrawal latency of the specific rat.
Rats, which were undergoing PSNL, were only tested on the operated left leg. 3 consecutive days before the operation, the withdrawal latency of the left leg was measured using the average of the 3 days as the basic withdrawal latency. The rat was then tested postoperatively for more days.
The difference score, expressed as percent reduction from the basic level to the postoperative level measurement, was used as an index for hyperalgesia: [formula] (pom: postoperative measurement)
Group averages appear with the standard error of the mean. The significance level of difference between means of various groups at certain postoperative times was examined by Student's t-test. The difference between the same group but at different days was examined by ANOVA.

[2] = system: rats with sciatic nerve constriction injury (CCI); details: spinal administration prior to CCI; cited from earlier work
[3] = Soluble expression of TNF-α variants in E. coli; assay type: physicochemical
Source text: Insertion of the PADRE epitope (SEQ ID NO: 4) into loop 3 in position Gly108-Ala109 is a promising approach to prepare TNF-α variants with a structure closely resembling the native TNF-α molecule. It has been deduced from the TNF-α crystal structure that a TH epitope inserted directly into this position will not have any neighbouring amino acid residues in close proximity to interact with.

[4] = bacterial host cells grown at 37° C.

O=C1CCC(N2C(=O)c3ccccc3C2=O)C(=O)N1 (stereo not shown) [thalidomide]
difference score in percent between the basic level and the postoperative measurement ([1]; thalidomide 50 mg/kg orally daily from 2 h pre-operation, day 2): 33.3±4.1%
difference score in percent between the basic level and the postoperative measurement ([1]; thalidomide 50 mg/kg orally daily, day 4): 33.9±5.9%
difference score in percent between the basic level and the postoperative measurement ([1]; thalidomide 50 mg/kg orally daily, day 6): 40.5±3.2%
difference score in percent between the basic level and the postoperative measurement ([1]; thalidomide 50 mg/kg orally daily, day 8): 41.3±3.4%
difference score in percent between the basic level and the postoperative measurement ([1]; thalidomide 50 mg/kg orally daily, day 10): 30.6±5.3%
difference score in percent between the basic level and the postoperative measurement ([1]; thalidomide 100 mg/kg orally daily from 2 h pre-operation, day 2): 22.0±7.2%
difference score in percent between the basic level and the postoperative measurement ([1]; thalidomide 100 mg/kg orally daily, day 4): 32.4±6.4%
difference score in percent between the basic level and the postoperative measurement ([1]; thalidomide 100 mg/kg orally daily, day 6): 38.0±4.1%
difference score in percent between the basic level and the postoperative measurement ([1]; thalidomide 100 mg/kg orally daily, day 8): 34.1±5.4%
difference score in percent between the basic level and the postoperative measurement ([1]; thalidomide 100 mg/kg orally daily, day 10): 29.8±4.6%

infliximab
difference score (basic level vs postoperative withdrawal latency) versus saline control ([1]; infliximab 5 mg/kg i.v. 2 hours prior to PSNL, days 2, 4, 6 and 7 postoperatively): No significant differences
difference score in percent between the basic level and the postoperative measurement ([1]; infliximab 5 μl (10 mg/ml) icv at days 2, 3 and 4, day 3): 39.2±5.6%
difference score in percent between the basic level and the postoperative measurement ([1]; infliximab 5 μl (10 mg/ml) icv at days 2, 3 and 4, day 4): 43.4±3.8%
difference score in percent between the basic level and the postoperative measurement ([1]; infliximab 5 μl (10 mg/ml) icv at days 2, 3 and 4, day 6): 47.2±4.0%
difference score in percent between the basic level and the postoperative measurement ([1]; infliximab 5 μl (10 mg/ml) icv at days 2, 3 and 4, day 8): 30.6±6.1%
nociceptive threshold compared to the control group ([1]; infliximab 5 μl (10 mg/ml) icv at days 2, 3 and 4 postoperatively): no significant difference
difference score in percent between the basic level and the postoperative measurement ([1]; infliximab 5 μl (10 mg/ml) icv at days 2, 3 and 4 postoperatively, day 2): 41.3±4.4%
difference score in percent between the basic level and the postoperative measurement ([1]; infliximab (10 mg/ml) icv continuously 0.5 μl/h by osmotic pump started day 3 preoperatively, day 2): 34.2±5.4%
difference score in percent between the basic level and the postoperative measurement ([1]; infliximab (10 mg/ml) icv continuously 0.5 μl/h started day 3 preoperatively, day 4): 34.6±5.4%
difference score in percent between the basic level and the postoperative measurement ([1]; infliximab (10 mg/ml) icv continuously 0.5 μl/h started day 3 preoperatively, day 6): 30.3±8.2%
difference score in percent between the basic level and the postoperative measurement ([1]; infliximab (10 mg/ml) icv continuously 0.5 μl/h started day 3 preoperatively, day 8): 27.5±5.2%

Clc1cccc(Cl)c1N=C1NCCN1 [clonidine]
delay in onset of thermal hyperestesia compared to control groups [2]: 3 days
difference score in percent between the basic level and the postoperative measurement ([1]; clonidine 0.6 mg/kg once at day 4 postoperatively after testing, day 5): −0.2±8.5%
difference score in percent between the basic level and the postoperative measurement ([1]; clonidine 0.6 mg/kg orally started 2 hours pre PSNI, repeated to day 2, day 2): 2.6±3.1%

TNF_T0: three TNFα monomers linked by two GlyGlyGly linkers; SEQ ID NO: 22 in PCT/DK02/00764
expression form in E. coli / bacterial cells [3]: soluble protein

B1: TNF34: human TNF-α variant, PADRE epitope inserted into loop 3 at Gly108-Ala109; SEQ ID NO: 18 in PCT/DK02/00764 (protein)
chain: VRSSSRTPSDKPVAHVVANPQAEGQLQWLNRRANALLANGVELRDNQLVVPSEGLYLIYSQVLFKGQGCPSTHVLLTHTISRIAVSYQTKVNLLSAIKSPCQRETPEGAKFVAAWTLKAAAAEAKPWYEPIYLGGVFQLEKGDRLSAEINRPDYLDFAESGQVYFGIIAL
modifications: hTNF with inserted PADRE
fraction expressed as inclusion bodies [3, 4]: 95%
fraction of the expressed protein soluble in E. coli [3, 4]: approximately 5%
yield of soluble protein from the fermentation ([3]; fermentation temperature 25° C.): ~100%
